The subject of data set [1] is V2R. Conditions: cited from earlier work.
The next data set has as its system V1aR. As to conditions: cited from earlier work.
The next data set concerns the target V2R D103A mutant (Homo sapiens, UniProt P30518, D103A). It counts as binding.
A further data set deals with V2R R104A mutant (Homo sapiens, UniProt P30518, R104A). It counts as binding.
The target in the next data set is V2R K116A mutant (Homo sapiens, UniProt P30518, K116A). It counts as binding.
Another data set addresses V2R Q119A mutant (Homo sapiens, UniProt P30518, Q119A). It counts as binding.
For a further data set, the target named is V2R Q174A mutant (Homo sapiens, UniProt P30518, Q174A). It counts as binding.
The target in another data set is V2R E184A mutant (Homo sapiens, UniProt P30518, E184A). It counts as binding.
A further data set has as its target V2R I209A mutant (Homo sapiens, UniProt P30518, I209A). It counts as binding.
The target in a further data set is V2R F287A mutant (Homo sapiens, UniProt P30518, F287A). It counts as binding.
For another data set, the target named is V2R Q291A mutant (Homo sapiens, UniProt P30518, Q291A). It counts as binding.
For the next data set, the target named is V2R S315A mutant (Homo sapiens, UniProt P30518, S315A). It counts as binding.
Data set [2] has as its system V2R. Conditions: cited from earlier work. The source holds these as a separate data set.
The conditions of data set [3]: in vivo; cited from earlier work.
A further data set concerns OTR. As to conditions: cited from earlier work.

Results on three molecules are retold here after article PMC12022113 (Nature Communications, 2025).

Entries after “also recorded” stand apart in the source; their conditions may differ.

For the molecule `Cc1nc2c([nH]1)-c1ccccc1N(C(=O)c1ccc(NC(=O)c3ccccc3-c3ccccc3)cc1)CC2` [Conivaptan], the “selectivity to V2R” value with V2R [1] was “not selective to V2R”. In addition, the “affinity for V1aR” value with V1aR is “high affinity”.

As for `Cc1ccccc1C(=O)Nc1ccc(C(=O)N2CCCC(O)c3cc(Cl)ccc32)c(C)c1` (centres unmarked) [TVP, 7-Chloro-5-hydroxy-1-[2-methyl-4-(2-methylbenzoylamino)benzoyl]-2,3,4,5-tetrahydro-1 H -1-benzazepine], the “effect of mutation (loss or gain vs WT)” value on V2R D103A mutant, at V2R R104A mutant, at V2R E184A mutant, on V2R I209A mutant, on V2R Q291A mutant and on V2R S315A mutant was “less than 5 fold” throughout. Also, the “effect of mutation on affinity” value on V2R R104A mutant is reported as “very limited effect or were without effect”; at V2R K116A mutant it was “moderate change in binding affinity; also recorded: less pronounced regarding TVP affinity, but was significant”; at V2R Q119A mutant, “significant gain in affinity”; at V2R Q174A mutant, “significant decrease in TVP affinity”; on V2R E184A mutant it was “very limited effect or were without effect”; on V2R I209A mutant, “very limited effect or were without effect”. Further, the “effect of mutation on affinity” value is reported as “moderate change in binding affinity” on V2R F287A mutant, “moderate change in binding affinity” at V2R Q291A mutant and “very limited effect or were without effect” on V2R S315A mutant. For the same molecule, in the data set with V2R [1], the “affinity for V2R” value is given as “high affinity”. Moreover, the “efficacy toward the Gs/cAMP pathway” value in the data set on V2R [2] is reported as “inverse agonist”. For the same molecule, in the data set with V2R [2], the “inhibition of V2R-dependent signaling pathways” value was “inhibit V2R-dependent signaling pathways”. Besides, the liver injury entry in data set [3] was “serious and potentially fatal liver injury”. In data set [3], the urine volume result is recorded as “increasing the amount of urine volume”.

As to `CC[C@H](C)[C@@H]1C(=O)N[C@H](C2Cc3ccccc3C2)C(=O)N1[C@@H](C(=O)N1CCOCC1)c1coc(C)n1` [Retosiban], in the data set on OTR, the OTR antagonism result is recorded as “potent OTR-selective non-peptide antagonist”.
